Laboratory results: patent US20150087613A1, “Inhibition of Opioid Antinociceptive Tolerance and Withdrawal in Nociceptive Pain Therapy” (Saint Louis University, priority 2013, published 2015)
Like-named read-outs stand apart in the source and are kept apart here.

Tests used:
A2AAR [1] = molecular target: T1, A2AAR (Mus musculus, UniProt Q60613); experiment: Radioligand binding, membranes of HEK293 cells stably expressing mA2AAR; settings: read-out: % inhibition A2A
T1 construct: expressed in transfected cells
T1 sequence (Q60613 whole entry): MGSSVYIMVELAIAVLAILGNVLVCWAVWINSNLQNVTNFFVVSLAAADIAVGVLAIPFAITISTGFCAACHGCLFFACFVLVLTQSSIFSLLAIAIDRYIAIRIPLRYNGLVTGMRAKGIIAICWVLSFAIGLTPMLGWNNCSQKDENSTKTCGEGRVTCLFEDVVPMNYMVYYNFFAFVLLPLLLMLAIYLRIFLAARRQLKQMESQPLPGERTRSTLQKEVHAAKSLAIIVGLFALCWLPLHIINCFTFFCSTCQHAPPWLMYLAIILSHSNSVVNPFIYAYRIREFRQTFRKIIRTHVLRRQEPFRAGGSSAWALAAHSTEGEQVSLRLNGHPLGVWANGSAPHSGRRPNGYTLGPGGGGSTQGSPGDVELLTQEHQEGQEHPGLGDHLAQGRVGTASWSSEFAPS

hA3AR = molecular target: T2, hA3AR (Homo sapiens, UniProt P0DMS8); experiment: cAMP assay, inhibition of forskolin-stimulated cAMP in hA3AR-transfected CHO cells; format: cell-based; settings: for Emax at 10 µM: CHO, read-out: % efficacy, A3
T2 construct: expressed in transfected cells
T2 sequence (P0DMS8 1-318): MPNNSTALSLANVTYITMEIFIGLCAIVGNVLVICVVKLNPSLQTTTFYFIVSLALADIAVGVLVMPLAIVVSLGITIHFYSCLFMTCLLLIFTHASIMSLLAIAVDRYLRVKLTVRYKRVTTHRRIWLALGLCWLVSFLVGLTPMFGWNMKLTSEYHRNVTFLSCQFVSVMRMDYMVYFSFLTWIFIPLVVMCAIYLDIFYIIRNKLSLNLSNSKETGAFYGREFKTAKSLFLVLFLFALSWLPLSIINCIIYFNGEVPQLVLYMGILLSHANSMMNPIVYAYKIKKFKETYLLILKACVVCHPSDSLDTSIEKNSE

A1AR [2] = molecular target: T3, A1AR (Homo sapiens, UniProt P30542); settings: species h; inhibition of binding at 10 μM; tested in ref 26; cited from earlier work
T3 construct: expressed in transfected cells
T3 sequence (P30542 1-326): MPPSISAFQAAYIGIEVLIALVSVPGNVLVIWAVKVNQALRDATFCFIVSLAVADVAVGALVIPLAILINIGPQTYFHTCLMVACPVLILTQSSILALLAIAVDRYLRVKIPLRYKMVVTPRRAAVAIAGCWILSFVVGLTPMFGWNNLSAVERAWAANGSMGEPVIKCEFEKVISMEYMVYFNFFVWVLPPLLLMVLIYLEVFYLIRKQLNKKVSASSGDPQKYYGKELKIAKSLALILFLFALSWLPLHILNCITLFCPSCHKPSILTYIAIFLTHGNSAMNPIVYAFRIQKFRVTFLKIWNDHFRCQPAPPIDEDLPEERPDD

A3AR [3] = molecular target: T4, A3AR (Mus musculus, UniProt Q61618); experiment: Radioligand binding, membranes of HEK293 cells stably expressing mA3AR; settings: species m; n 3-4; read-out: affinity (KV nM) A3
T4 construct: expressed in transfected cells
T4 sequence (Q61618 1-319): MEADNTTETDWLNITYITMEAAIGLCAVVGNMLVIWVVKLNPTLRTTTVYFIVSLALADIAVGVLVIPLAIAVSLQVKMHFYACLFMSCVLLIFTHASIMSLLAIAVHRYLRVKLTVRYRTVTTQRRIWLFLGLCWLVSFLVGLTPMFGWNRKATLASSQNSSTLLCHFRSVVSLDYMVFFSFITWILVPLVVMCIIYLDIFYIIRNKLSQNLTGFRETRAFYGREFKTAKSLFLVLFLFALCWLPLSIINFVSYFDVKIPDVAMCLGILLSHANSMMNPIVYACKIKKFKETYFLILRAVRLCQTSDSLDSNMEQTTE

A1AR [4] = molecular target: T5, A1AR (Mus musculus, UniProt Q60612); experiment: Radioligand binding, membranes of HEK293 cells stably expressing mA1AR; settings: for inhibition at 10 µM: read-out: % inhibition A1; for Ki: species m, n 3-4, read-out: affinity (KV nM) A1
T5 construct: expressed in transfected cells
T5 sequence (Q60612 1-326): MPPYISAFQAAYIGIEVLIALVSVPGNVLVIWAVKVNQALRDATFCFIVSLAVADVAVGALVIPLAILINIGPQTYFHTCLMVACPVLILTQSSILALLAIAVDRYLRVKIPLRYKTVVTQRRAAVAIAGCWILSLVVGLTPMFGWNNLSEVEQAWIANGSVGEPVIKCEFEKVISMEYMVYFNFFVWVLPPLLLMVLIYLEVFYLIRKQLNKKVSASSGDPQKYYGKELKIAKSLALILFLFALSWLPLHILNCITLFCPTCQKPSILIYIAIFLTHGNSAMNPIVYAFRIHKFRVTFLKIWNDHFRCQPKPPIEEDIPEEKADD

A3AR [5] = molecular target: T6, A3AR (Homo sapiens, UniProt P0DMS8); experiment: Radioligand binding, membranes of CHO cells stably expressing hA3AR; settings: species h; agonist radioligand 42; n 3-4; read-out: affinity (KV nM) A3
T6 construct: expressed in transfected cells
T6 sequence (P0DMS8 1-318): T2 sequence (P0DMS8 1-318)

A1AR [6] = molecular target: T3, A1AR; experiment: Radioligand binding, membranes of CHO cells stably expressing hA1AR; settings: for inhibition at 10 µM: read-out: % inhibition A1
mA3AR = molecular target: T7, mA3AR (Mus musculus, UniProt Q61618); experiment: cAMP assay, inhibition of forskolin-stimulated cAMP in mA3AR-transfected HEK cells; format: cell-based; settings: HEK293; read-out: % efficacy, A3
T7 construct: expressed in transfected cells
T7 sequence (Q61618 1-319): T4 sequence (Q61618 1-319)

A2AAR [7] = molecular target: T8, A2AAR (Homo sapiens, UniProt P29274); experiment: Radioligand binding, membranes of HEK293 cells stably expressing hA2AAR; settings: read-out: % inhibition A2A
T8 construct: expressed in transfected cells
T8 sequence (P29274 whole entry): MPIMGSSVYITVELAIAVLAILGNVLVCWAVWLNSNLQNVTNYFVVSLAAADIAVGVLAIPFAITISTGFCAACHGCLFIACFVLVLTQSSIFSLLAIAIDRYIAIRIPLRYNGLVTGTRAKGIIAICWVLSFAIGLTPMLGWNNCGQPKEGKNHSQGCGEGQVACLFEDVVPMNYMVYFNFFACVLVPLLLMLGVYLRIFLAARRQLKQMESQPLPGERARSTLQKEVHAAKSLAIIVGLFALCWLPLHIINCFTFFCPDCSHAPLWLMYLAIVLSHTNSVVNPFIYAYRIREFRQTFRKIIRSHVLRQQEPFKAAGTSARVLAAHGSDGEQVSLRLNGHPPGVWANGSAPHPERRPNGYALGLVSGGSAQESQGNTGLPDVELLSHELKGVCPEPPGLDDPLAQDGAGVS

A2AAR [8] = molecular target: T8, A2AAR; settings: species h, tested in ref 26, cited from earlier work; for % inhibition A2A: inhibition of binding at 10 μM; for Ki: agonist radioligand 41, read-out: affinity (KV nM) A2A
A3AR [9] = molecular target: T6, A3AR; settings: species h; agonist radioligand 42; tested in ref 26; read-out: affinity (KV nM) A3; cited from earlier work
Male Sprague Dawley rats [10] = experiment: Acute antinociceptive interaction with acute morphine (tail flick); format: in vivo, rat
Text: (§1) Test substances or vehicle were given on day 0 through 6 after completion of the behavioral tests.

Male Balb/c mice = experiment: Naloxone-precipitated withdrawal in morphine dependent mice; format: in vivo, mouse; settings: IB-MECA 0.1 mg/kg with three day morphine regimen
Procedure: Male Balb/c mice (19-26 g) were purchased from University of Adelaide Laboratory Animal Services (Waite Campus, Adelaidem South Australia) and housed 6 per individually ventilated cage (IVC) and maintained in controlled environment (12 h light/dark cycle) with food and water available ad libitum.
A group of control mice (n=7 per strain) received an equal number of saline injections over 3 days.
EtOH was maintained at 0.02% final drug preparation. Vehicle was 0.02% EtOH in normal saline.
Immediately after the naloxone injection, animals were placed into individual Plexiglas observation cylinders (25 h×11 w cm) (Nalgene, Scoresby, VIC, Australia). Withdrawal jumping response symptoms were recorded and the frequency of jumps for each mouse was summed over 30 min. Other characteristic opioid withdrawal behaviors were also recorded such as front paw shakes and hunched/prayer postures. All testing was conducted blind to group assignment.

Male Sprague Dawley rats [11] = experiment: Rat morphine antinociceptive tolerance study (osmotic minipump, tail flick test); format: in vivo
Text: Minipumps were filled according to manufacturer's specifications. The use of the osmotic pump ensures a continuous subcutaneously delivery of morphine avoiding intermittent periods of withdrawal. […] The integrity of the pump delivery system was reexamined at the end of each experiment when the spinal cords are harvested.
as §1

[12] = Solubility in EtOH on preparing the dosing solution; settings: 5 mg dissolved in 5 ml EtOH

Row | Compound | inhibition at 10 µM (A2AAR [1]) [%] | % inhibition A1 (A1AR [2]) | Ki (A3AR [3]) [nM] | inhibition at 10 µM (A1AR [4]) [%] | Emax at 10 µM (hA3AR) [%] | % inhibition A2A (A2AAR [8]) | further results
1 | CNC(=O)[C@@]12C[C@@H]1[C@@H](n1cnc3c(NCc4cccc(Cl)c4)nc(C#Cc4ccccc4)nc31)[C@H](O)[C@@H]2O [Compound 5] | 2 | (20% ± 3%) | 1.23 ± 0.14 | 50 | – | – | % efficacy, A3 (hA3AR; species h, percentage of maximal effect of 5′-N-ethylcarboxamidoadenosine 43, each at 10 μM, mean ± SEM): 101 ± 5.9%
2 | CNC(=O)[C@@]12C[C@@H]1[C@@H](n1cnc3c(NCc4cccc(Cl)c4)nc(C#Cc4ccc(S(=O)(=O)O)cc4)nc31)[C@H](O)[C@@H]2O [Compound 6] | 14 | – | 9.68 ± 0.15 | – | 96.8 ± 5.7 | – | Ki (A3AR [5]): 11.1 ± 1.6 nM; Ki (A1AR [6]; species h, agonist radioligand 40, n 3-4, read-out: affinity (KV nM) A1): 383 ± 75 nM; Emax (mA3AR): 95.7 ± 19.1%; Ki (A1AR [4]): 35.1 ± 5.5 nM; inhibition at 10 µM (A2AAR [7]): 23%
3 | CNC(=O)[C@@]12C[C@@H]1[C@@H](n1cnc3c(NCc4cccc(Cl)c4)nc(C#Cc4cccc(S(=O)(=O)O)c4)nc31)[C@H](O)[C@@H]2O [Compound 7] | 1 | – | 11.3 ± 1.9 | 15 | 98.2 ± 6.7 | – | Ki (A3AR [5]): 1.9 ± 0.03 nM; inhibition at 10 µM (A1AR [6]): 16%; Emax (mA3AR): 89.3 ± 7.1%; inhibition at 10 µM (A2AAR [7]): 7%
4 | CNc1nc(C#Cc2ccccc2)nc2c1ncn2[C@H]1[C@H](O)[C@H](O)[C@@H]2C[C@@H]21 [Compound 8] | 8 | (18% ± 1%) | 1530 ± 240 | – | 12.6 ± 4 | (18% ± 3%) | Ki (A1AR [4]): 3800 ± 780 nM
5 | CCNc1nc(C#Cc2ccccc2)nc2c1ncn2[C@H]1[C@H](O)[C@H](O)[C@@H]2C[C@@H]21 [Compound 9] | 49 | (36% ± 4%) | 1480 ± 170 | 49 | 0.8 ± 5.2 | (42% ± 4%) | –
6 | CCNc1nc(C#Cc2ccccc2Cl)nc2c1ncn2C1C(O)C(O)C2CC21 (stereo not shown) [Compound 10] | – | (25% ± 11%) | – | – | 7 ± 5.2 | (17% ± 6%) | Ki (A3AR [9]): 5.8 ± 2.08 nM
7 | OC1C(O)C(n2cnc3c(NCc4cccc(Cl)c4)nc(C#Cc4ccccc4)nc32)C2CC12 (stereo not shown) [Compound 11] | – | – | – | – | 13.8 ± 5.1 | – | Ki (A2AAR [8]): 680 ± 170 nM
8 | OC1C(O)C(n2cnc3c(NCc4cccc(Cl)c4)nc(C#Cc4cccc(Cl)c4)nc32)C2CC12 (stereo not shown) [Compound 12] | – | – | – | – | – | – | Ki (A2AAR [8]): 1800 ± 310 nM
9 | O[C@@H]1[C@H](O)[C@@H]2C[C@@H]2[C@H]1n1cnc2c(NCc3cccc(Cl)c3)nc(C#Cc3ccc(-c4ccccc4)cc3)nc21 [Compound 13] | 0 | (48% ± 4%) | 255 ± 77 | – | 3.5 ± 3.2 | (12% ± 7%) | Ki (A1AR [4]): 1110 ± 220 nM
10 | O[C@@H]1[C@H](O)[C@@H]2C[C@@H]2[C@H]1n1cnc2c(NCCc3ccccc3)nc(C#Cc3ccccc3)nc21 [Compound 14] | – | (30% ± 8%) | – | – | 4.1 ± 1.2 | (22% ± 5%) | –
11 | OC1C(O)C(n2cnc3c(NCC(c4ccccc4)c4ccccc4)nc(C#Cc4ccccc4Cl)nc32)C2CC12 (stereo not shown) [Compound 15] | – | (26% ± 4%) | – | – | 2.6 ± 1.3 | (22% ± 2%) | Ki (A3AR [9]): 140 ± 30 nM
12 | O=S(=O)(O)c1ccc(CCNc2nc(C#Cc3ccccc3)nc3c2ncn3[C@H]2[C@H](O)[C@H](O)[C@@H]3C[C@@H]32)cc1 [Compound 16] | 1 | – | 3920 ± 1190 | 18 | 7.2 | – | Ki (A3AR [5]): 30.2 ± 4.3 nM; inhibition at 10 µM (A1AR [6]): 10%; inhibition at 10 µM (A2AAR [7]): 15%
13 | CNC(=O)[C@@]12C[C@@H]1[C@@H](n1cnc3c(NCCc4ccccc4)nc(C#Cc4ccccc4)nc31)[C@H](O)[C@@H]2O [Compound 17] | 1 | – | 8.75 ± 2.12 | 25 | 105 ± 9.8 | – | Ki (A3AR [5]): 1.23 ± 0.57 nM; inhibition at 10 µM (A1AR [6]): 11%; Emax (mA3AR): 115 ± 14.6%; inhibition at 10 µM (A2AAR [7]): 32%
14 | CNC(=O)[C@H]1O[C@@H](n2cnc3c(NCc4cccc(I)c4)ncnc32)[C@H](O)[C@@H]1O [IB-MECA, N^6-(3-iodobenzyl)-adenosine-5′-N-methyluronamide] | – | – | – | – | – | – | potentiation of antinociceptive responses to acute morphine (Male Sprague Dawley rats [10]; IB-MECA 0.3 mg/kg i.p. 15 min before morphine 3 mg/kg i.p.): did not potentiate the antinociceptive responses to acute morphine; antinociception after acute morphine with IB-MECA pretreatment (Male Sprague Dawley rats [10]; IB-MECA 0.3 mg/kg i.p. 15 min before morphine 3 mg/kg i.p., at 30 min): 35+5 % antinociception; less naloxone-precipitated jumping vs morphine dependent mice receiving vehicle (Male Balb/c mice; 95% CI 1 to 17): 9 jumps/30 min; less episodes of hunched/prayer posture vs morphine dependent mice receiving vehicle (Male Balb/c mice; 95% CI 3 to 7, 30 minute observation): 5 episodes; less bouts of front paw shakes vs morphine dependent mice receiving vehicle (Male Balb/c mice; 95% CI 5 to 15): 10 bouts of front paw shakes/30 min; development of morphine-induced antinociceptive tolerance (Male Sprague Dawley rats [11]; IB-MECA i.p. daily during 7 day s.c. morphine infusion, tail flick 30 min after acute morphine, day 3 and 6, n=2): blocked the development of morphine-induced antinociceptive tolerance; effect on baseline tail flick latency (Male Sprague Dawley rats [11]; given alone daily over 6 days to rats that received saline infusion): had no effect on baseline tail flick latency; solubility in EtOH [12]: soluble
15 | CN1CC[C@]23c4c5ccc(O)c4O[C@H]2[C@@H](O)C=C[C@H]3[C@H]1C5 [morphine] | – | – | – | – | – | – | antinociception after acute morphine alone (Male Sprague Dawley rats [10]; morphine 3 mg/kg i.p., at 30 min): 40±2 % antinociception; analgesia at 2 hr following minipump implant (Male Sprague Dawley rats [11]; morphine 75 μg/μl/h s.c. by osmotic minipump): approximately 100 % analgesia; development of antinociceptive tolerance on chronic morphine infusion (Male Sprague Dawley rats [11]; s.c. infusion over 7 days (Veh-Mor, n=2) vs saline infusion, P<0.001, day 3 and 6): led to the development of antinociceptive tolerance
